{"source": "paper PMC7156724", "about": "“Potent BRD4 inhibitor suppresses cancer cell-macrophage interaction” (Nature Communications, 2020)", "tested_on": "BRD4 binding to the HIF1A promoter", "assay": "BRD4 ChIP-qPCR of the HIF1A promoter in A2780 cells", "format": "cell-based, human", "method": "Fig. 7 NHWD-870 inhibited CSF1 expression through suppressing BRD4 and HIF1α in tumor cells. a, b Representative western blot analysis of control (Ctrl) and BRD4 knockout (KO) A375 and A2780 cells exposed to 20% or 1% O2 for 24 hours. Selected from three independent experiments. c, d Representative western blot analysis of A375 and A2780 cells treated with DMSO or 25 nM NHWD-870 and exposed to 20% or 1% O2 for 24 h. Selected from three independent experiments. e Relative HIF1 luciferase reporter activity in control (Ctrl), BRD4 knockout (KO), or NHWD-870 treated A375 and A2780 cells exposed to 20% or 1% O2 for 24 h. Data are presented as mean ± SEM from three independent experiments. f RT-qPCR analyses of CSF1 in control (Ctrl), BRD4 knockout (KO), or NHWD-870 treated A375 and A2780 cells exposed to 20% or 1% O2 for 24 hours. Data are presented as mean ± SEM from three independent experiments. g RT-qPCR analyses of HIF1A in A375 or A2780 cells treated with 15 nM NHWD-870 or DMSO control for 24 h. Data are presented as mean ± SEM from three independent experiments. h Genome browser view of BRD4 ChIP-seq peaks on the HIF1A promoter. Shown are BRD4 ChIP and input control of A375 cells (top panel) and BRD4 ChIP of MDA-MB231 cells treated with DMSO or JQ-1 (bottom panel). i BRD4 ChIP-qPCR analyses of the HIF1A promoter in A2780 cells treated with DMSO or NHWD-870 for 72 h. Data are presented as mean ± SEM from three independent experiments. j RT-qPCR analyses of CSF1 in A375 and A2780 cells were transiently transduced with HIF1α, then exposed to 1% O2 for 24 h. Ctrl, Control. Data are presented as mean ± SEM from three independent experiments. k A model showing the effects of NHWD-870 on cancer cell-TAM interaction. NHWD-870 inhibits the proliferation and survival of TAMs partly by inhibiting BRD4 activity, HIF1α expression, and CSF1 secretion by tumor cells, and downregulating CSF1R mediated ERK and PI3K/AKT signaling in TAMs. p values were calculated using two-tailed, unpaired t tests in this figure. *p < 0.05; **p < 0.01; ***p < 0.001. […]", "note": "Values joined by “and” are separate entries in the source; they are usually repeats but may differ in a detail not shown here. Identical values can stand only once."}
{"compound": "Cc1nnn(C)c1-c1cnc2c3c4cnn(C)c4ccc3n([C@H](c3ccccc3)C3CCOCC3)c2c1", "note": "[NHWD-870]", "values": [{"measurement": "ChIP-qPCR enrichment relative to input, IgG (Fig.7i)", "setting": "A2780, 15nM 3 days", "result": "0.411 and 0.4665 and 0.4566"}, {"measurement": "ChIP-qPCR enrichment relative to input, anti-BRD4 (Fig.7i)", "setting": "A2780, 15nM 3 days", "result": "0.646 and 0.721 and 0.6555"}, {"measurement": "BRD4 binding to the HIF1A promoter (ChIP-qPCR)", "setting": "A2780 cells, 15nM, 72 h", "result": "decreased BRD4 binding to the HIF1A promoter"}]}
